{"source": "patent US20080076772A1", "about": "“Anti-Inflammatory Agents” (Pharma Mar S.A. Sociedad Unipersonal, priority 2004, published 2008)", "key": {"thymocytes": {"tested_on": "thymocytes", "experiment": "Cell viability of freshly isolated thymocytes (PI staining, flow cytometry)", "format": "cell-based", "details": "Homo sapiens, Thymocyte, 48 h", "description": "Purified populations of human blood monocytes were prepared as previously described by differential density centrifugation on Ficoll and Percoll gradients (see Allavena, P., Piemonti, L., Longoni, D., Bernasconi, S., Stoppacciaro, A., Ruco, L., and Mantovani, A. IL-10 prevents the differentiation of monocytes to dendritic cells but promotes their maturation to macrophages. Eur J Immunol, 28: 359-369, 1998). […] Human thymocytes were isolated from resected thymus from pediatric patients undergoing surgery. Thymocytes were obtained by teasing and isolated on Percoll gradient.\nCell viability was analyzed by DNA content in Flow Cytometry\nCells exposed to treatments were fixed with ethanol 70%, washed in PBS and stained with propidium iodide (PI) solution containing 10 ug/ml PI in PBS and 25 μl RNAse 10,000 units, overnight in the dark. PI incorporation was evaluated on at least 20,000 cells/sample using a FACS Calibur instrument (Becton Dickinson, Sunnyvale, Calif., USA), with a bandpass filter at 620 nm. Apoptosis was detected by staining with AnnexinV and PI. FACS analysis was performed using a bandpass filter 530 and 620 nm for green (AnnexinV) and red (PI) fluorescence respectively, in combination with a […] dichroic mirror.\nPurified preparations of blood monocytes, lymphocytes and thymocytes were cultured with different concentrations of ecteinascidin 743 for 48 h. […]"}, "[1]": {"tested_on": "in vitro differentiated macrophages", "experiment": "Cell viability of in vitro differentiated macrophages (PI staining, flow cytometry)", "format": "cell-based, human", "description": "Apoptosis was detected by staining with AnnexinV and PI.\nWe next studied the effect of ecteinascidin 743 on already differentiated macrophages obtained from monocytes cultured in vitro for 5 days with M-CSF. […] Monocytes were differentiated to macrophages by culture with M-CSF (20 ng/ml). At day 3, ecteinascidin 743 was added to cultures and incubated for 48 h. […] Similar results were obtained in other 4 experiments. In a series of 4 different experiments, IC50 for in vitro differentiated was 10 nM.\nWe then tested the susceptibility to ecteinascidin 743 of macrophages classically activated by LPS and IFN gamma (or M1 macrophages) and alternatively activated by IL-4 (or M2 macrophages). In vitro differentiated macrophages were stimulated with LPS (100 ng/ml)+IFNgamma (500 UI:ml), Il-4 (20 ng/ml), in the presence or absence of ecteinascidin 743 for 48 h."}, "monocytes": {"tested_on": "monocytes", "experiment": "Monocytopenia in cancer patients after in vivo treatment (blood formula)", "set-up": "species or system human", "details": "of 9 patients; decrease = 25% inhibition in at least one cycle; % of leukocytes and monocytes/ul of blood", "description": "We also investigated whether the in vivo treatment with ecteinascidin 743 caused a measurable monocytopenia in cancer patients. Monocyte values were obtained from blood formula during routine clinical analysis."}, "CCL2 [2]": {"tested_on": "CCL2", "experiment": "CCL2 production by LPS-stimulated monocytes (ELISA)", "format": "cell-based, human", "description": "(§1) Supernatants of untreated cells or cells treated with ecteinascidin 743 or other anti-neoplastic agents were collected after 24 h culture and frozen. Monocytes, macrophages and TAM were stimulated with 100 ng/ml LPS to induce maximal cytokine production. Determination of cytokines CCL2, TNF and IL-6 was measured by specific ELISA following the manufacturer's instructions.\n(§2) Monocytes and in vitro differentiated macrophages were stimulated with LPS (100 ng/ml). After 1 h LPS stimulation they were treated with ecteinascidin 743. After 16 h incubation, cell supernatants were harvested and tested in ELISA. Under these treatment conditions cell viability was usually >85% for concentrations up to 5 nM. […] Mean inhibition at 5 nM, for monocytes, was 65% (range 50-80%, n=5) and was 50% (range 25-75%, n=5) for in vitro differentiated macrophages. Results are mean+/−SE of 3-5 experiments\nSimilar results were obtained when monocytes were stimulated with LPS (100 ng/ ml) and treated with ET743 and the other ecteinascidin compounds, although the overall inhibition was less marked compared with the previous experiment where the tumor supernantant was used as CCL2-inducing stimulus.\nCCL2 and TNF production by LPS-stimulated monocytes treated with the indicated doses of the anti-tumor agents was also tested. Cell supernatants were harvested after 24 h-incubation and tested in ELISA. […] None of these compounds interfered with the production of TNF.\nA major finding of our work is the inhibitory activity of ecteinascidin 743 on the production of inflammatory cytokines. Among various inflammatory cytokines produced by monocyte/macrophages we have tested IL-6, TNF and the chemokine CCL2. CCL2 is a chemokine attracting monocytes and other leukocyte subsets, and is produced both by monocyte/macrophages and several tumour cells. It has been described that ovarian adenocarcinoma cells produce huge amounts of CCL2 and that their levels correlate with the macrophage content of tumours. CCL2 is therefore one of the most important factors regulating monocyte/macrophages recruitment at the tumour site. […] Thus, lower levels of CCL2 by TAM and tumour cells are likely to reduce the number of macrophages recruited at the tumour site. In the above described in vitro experiments ecteinascidin 743 was present throughout the 16-h culture period. We also checked whether a shorter in vitro exposure to ecteinascidin 743 was sufficient to affect cytokine production. Monocytes exposed to ecteinascidin 743 were washed after 1 hour culture and replaced in fresh medium."}, "CCL2 [3]": {"tested_on": "CCL2", "experiment": "CCL2 production by LPS-stimulated in vitro differentiated macrophages (ELISA)", "format": "cell-based", "details": "Homo sapiens, Macrophage; 5 nM, LPS 100 ng/ml, 16 h, n=5", "description": "as §1, §2"}, "IL-6": {"tested_on": "IL-6", "experiment": "IL-6 production by LPS-stimulated in vitro differentiated macrophages (ELISA)", "format": "cell-based", "details": "Homo sapiens, Macrophage; 5 nM, n=2; read-out: overall inhibition of IL-6 production, macrophages", "description": "as §1, §2\nWe also tested two other cytokines, IL-6 and TNF, produced by macrophages and tumour cells, which have inflammatory properties and also act as growth factors for some tumours. IL-6 production was always reduced after ecteinascidin 743 treatment, with an overall inhibition at 5 nM of 54% (range 51-57%, n=2) and 69% (range 66-72%, n=2), in monocytes and macrophages, respectively (FIG. 6B). […]"}, "CCL2 [4]": {"tested_on": "CCL2", "experiment": "CCL2 production induced by exposure of monocytes to tumor cell supernatants", "format": "cell-based, human", "details": "Homo sapiens, Monocyte; for inhibition at 0.0025 µM: 2.5 nM; for inhibition at 0.005 µM: 5 nM", "description": "We also tested five other ecteinascidin compounds (Table 2) for their capacity to inhibit the production of CCL2 by human monocytes in vitro. […] The extent of inhibition of ET637 Derivative A was even more pronouced compared to ET743. In Table 2 is shown that the production of CCL2, induced by exposure of monocytes to tumor cell supernatants, is inhibited up to 80% and 97% at 2.5 and 5 nM, respectively, in two different donors. In the same experiment ET743 inhibited between 30% and 70%."}, "[5]": {"details": "read-out: % inhibition of CCL2 production, Donor A"}, "[6]": {"details": "read-out: % inhibition of CCL2 production, Donor B"}}, "note": "Where two headings read alike, the source gives them in different places.", "data": [{"smiles": "COc1cc2c(cc1O)CCN[C@]21CS[C@@H]2c3c(OC(C)=O)c(C)c4c(c3[C@H](COC1=O)N1[C@@H]2[C@H]2c3c(cc(C)c(OC)c3O)C[C@@H]([C@@H]1O)N2C)OCO4", "note": "[ecteinascidin 743]", "values": [{"measurement": "IC50", "setting": "thymocytes", "value": "> 40", "unit": "nM"}, {"measurement": "IC50", "setting": "[1]; Homo sapiens, Macrophage, drug added in the last 48 h, series of 4 experiments", "value": 10, "unit": "nM"}, {"measurement": "susceptibility of LPS-stimulated and IL-4-stimulated macrophages", "setting": "[1]; LPS 100 ng/ml + IFNgamma 500 UI/ml or IL-4 20 ng/ml, 48 h", "value": "susceptible to drug treatment similarly as non-stimulated macrophages"}, {"measurement": "patients showing a decrease in the number of monocytes", "setting": "monocytes", "value": 7}, {"measurement": "inhibition at 0.005 µM", "setting": "CCL2 [2]; Homo sapiens, Monocyte, 5 nM, LPS 100 ng/ml, 16 h, n=5", "value": 65, "unit": "%"}, {"measurement": "inhibition of CCL2 production", "setting": "CCL2 [2]; monocytes washed after 1 hour culture with drug, fresh medium", "value": 57, "unit": "%"}, {"measurement": "inhibition of CCL2 production", "setting": "CCL2 [2]; monocytes, 16 h-treatment", "value": 69, "unit": "%"}, {"measurement": "inhibition at 0.005 µM", "setting": "CCL2 [3]", "value": 50, "unit": "%"}, {"measurement": "inhibition at 0.005 µM", "setting": "IL-6", "value": 69, "unit": "%"}, {"measurement": "inhibition at 0.0025 µM", "setting": "CCL2 [4]; [5]", "value": 30, "unit": "%"}, {"measurement": "inhibition at 0.0025 µM", "setting": "CCL2 [4]; [6]", "value": 60, "unit": "%"}, {"measurement": "inhibition at 0.005 µM", "setting": "CCL2 [4]; [5]", "value": 70, "unit": "%"}, {"measurement": "inhibition at 0.005 µM", "setting": "CCL2 [4]; [6]", "value": 70, "unit": "%"}]}]}
